Experimental data: ChEMBL document CHEMBL1641441, “A novel screening model for the molecular drug for diabetes and obesity based on tyrosine phosphatase Shp2” (Bioorg Med Chem Lett, 2011)
The source made the active and inactive calls.

Experiments:
[1] = biological target: Tyrosine-protein phosphatase non-receptor type 6 (Homo sapiens) (UniProt P29350); experiment: Increase of GST-tagged full length Shp1 activity expressed in Escherichia coli BL21 at 10 uM after 30 mins
[2] = biological target: Dual specificity protein phosphatase 3 (Homo sapiens) (UniProt P51452); experiment: Increase of GST-tagged full length Vhr activity expressed in Escherichia coli BL21 at 10 uM after 30 mins
[3] = biological target: T1, Tyrosine-protein phosphatase non-receptor type 7 (Homo sapiens) (UniProt P35236); experiment: Increase of GST-tagged full length HePTP activity expressed in Escherichia coli BL21 at 10 uM after 30 mins
T1 sequence (whole entry): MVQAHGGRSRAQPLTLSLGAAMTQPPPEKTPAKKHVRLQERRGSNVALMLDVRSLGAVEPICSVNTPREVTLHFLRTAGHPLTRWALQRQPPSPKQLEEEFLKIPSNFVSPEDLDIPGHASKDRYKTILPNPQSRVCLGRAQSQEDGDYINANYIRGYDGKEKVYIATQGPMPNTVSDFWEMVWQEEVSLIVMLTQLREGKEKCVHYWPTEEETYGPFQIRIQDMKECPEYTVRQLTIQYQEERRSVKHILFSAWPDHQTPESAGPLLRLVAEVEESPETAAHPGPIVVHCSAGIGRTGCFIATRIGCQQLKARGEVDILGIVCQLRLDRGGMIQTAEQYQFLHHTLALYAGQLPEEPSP

Measured: Activity

Chain of Tyrosine-protein phosphatase non-receptor type 6 (Homo sapiens) (P29350 whole entry): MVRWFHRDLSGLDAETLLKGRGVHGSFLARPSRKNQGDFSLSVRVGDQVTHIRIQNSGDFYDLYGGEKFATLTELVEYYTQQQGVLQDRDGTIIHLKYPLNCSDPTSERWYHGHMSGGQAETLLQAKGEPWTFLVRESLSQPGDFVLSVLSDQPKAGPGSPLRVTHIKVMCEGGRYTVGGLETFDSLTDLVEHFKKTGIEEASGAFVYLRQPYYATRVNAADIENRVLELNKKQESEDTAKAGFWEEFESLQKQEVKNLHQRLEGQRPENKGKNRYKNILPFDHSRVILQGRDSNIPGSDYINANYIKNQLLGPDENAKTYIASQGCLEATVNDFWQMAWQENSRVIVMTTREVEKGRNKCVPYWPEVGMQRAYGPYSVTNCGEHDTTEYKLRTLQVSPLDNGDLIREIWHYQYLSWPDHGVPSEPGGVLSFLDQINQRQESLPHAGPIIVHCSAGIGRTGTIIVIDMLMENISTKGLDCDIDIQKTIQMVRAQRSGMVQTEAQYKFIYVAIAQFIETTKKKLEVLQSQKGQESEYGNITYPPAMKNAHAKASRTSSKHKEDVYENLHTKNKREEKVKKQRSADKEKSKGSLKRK
Chain of Dual specificity protein phosphatase 3 (Homo sapiens) (P51452 whole entry, looked up): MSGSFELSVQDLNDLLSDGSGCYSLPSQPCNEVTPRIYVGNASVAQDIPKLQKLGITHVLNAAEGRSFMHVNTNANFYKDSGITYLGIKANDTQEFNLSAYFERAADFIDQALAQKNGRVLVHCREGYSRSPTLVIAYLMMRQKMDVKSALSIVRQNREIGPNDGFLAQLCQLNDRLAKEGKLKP

CC1(C)CC[C@]2(C(=O)O)CC[C@]3(C)C(=CC[C@@H]4[C@@]5(C)CC[C@H](O)C(C)(C)[C@@H]5CC[C@]43C)[C@@H]2C1
inactive: [1] | [2] | [3]
